This passage reports inhibition and pest or weed control results from patent US12540118B2, “Dendrene amide compound, bactericide and use thereof” (Jiangsu Flag Chemical Industry Co., Ltd., priority 2020, dated 2026).

Each structure is given as a SMILES string.

T1 sequence (Q0QF01 43-664 partner): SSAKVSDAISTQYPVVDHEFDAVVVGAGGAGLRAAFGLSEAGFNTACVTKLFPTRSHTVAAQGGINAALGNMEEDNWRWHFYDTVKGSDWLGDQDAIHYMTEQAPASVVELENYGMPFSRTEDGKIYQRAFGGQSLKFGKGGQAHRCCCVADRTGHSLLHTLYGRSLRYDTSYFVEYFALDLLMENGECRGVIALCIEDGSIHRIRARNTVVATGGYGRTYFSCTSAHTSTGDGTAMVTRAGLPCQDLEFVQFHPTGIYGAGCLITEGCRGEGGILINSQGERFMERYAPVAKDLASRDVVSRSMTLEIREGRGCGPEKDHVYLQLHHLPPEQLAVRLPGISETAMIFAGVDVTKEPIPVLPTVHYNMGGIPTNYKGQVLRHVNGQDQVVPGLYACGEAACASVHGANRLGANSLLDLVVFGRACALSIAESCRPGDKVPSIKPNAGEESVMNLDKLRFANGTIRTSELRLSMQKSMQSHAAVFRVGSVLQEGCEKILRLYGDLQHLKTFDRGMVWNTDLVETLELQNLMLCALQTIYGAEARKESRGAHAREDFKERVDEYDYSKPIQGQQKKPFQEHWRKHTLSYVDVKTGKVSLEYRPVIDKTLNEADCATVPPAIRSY
T1 sequence (Q007T0 29-280): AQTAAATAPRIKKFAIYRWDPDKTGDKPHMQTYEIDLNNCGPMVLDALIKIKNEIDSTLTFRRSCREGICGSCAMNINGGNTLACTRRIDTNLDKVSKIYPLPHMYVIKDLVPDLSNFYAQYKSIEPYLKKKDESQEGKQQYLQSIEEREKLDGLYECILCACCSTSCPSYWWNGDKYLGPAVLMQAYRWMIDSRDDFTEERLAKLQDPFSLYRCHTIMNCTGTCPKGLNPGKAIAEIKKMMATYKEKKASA
T1 sequence (D0VWV4 30-169): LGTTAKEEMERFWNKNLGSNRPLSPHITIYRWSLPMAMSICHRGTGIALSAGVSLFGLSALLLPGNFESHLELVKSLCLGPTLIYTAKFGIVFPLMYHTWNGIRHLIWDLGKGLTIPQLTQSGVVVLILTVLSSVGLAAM
T1 sequence (A5GZW8 57-159 limits assumed): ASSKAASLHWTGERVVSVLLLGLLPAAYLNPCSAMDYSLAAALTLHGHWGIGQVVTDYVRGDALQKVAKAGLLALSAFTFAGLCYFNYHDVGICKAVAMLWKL

The first test addresses T1, succinate dehydrogenase (Sus scrofa, UniProt A5GZW8+D0VWV4+Q007T0).
T1 construct: isolated from porcine hearts; from tissue; host or cells: porcine heart
The experiment in a line: Enzyme activity assay, succinate dehydrogenase (DCIP reduction). Format: biochemical, porcine. Particulars: read-out: Inhibitors (10 μM, SQR). How it is done:
The inhibitory activities of control agents and target compounds on succinate dehydrogenase are determined.
The enzyme used in this test example is succinate dehydrogenase, which is isolated from porcine hearts.
The test method comprises the following steps: The total volume of the system is 1.8 ml, and the system contained 100 mM Na2HPO4—NaH2PO4 buffer (pH=7.4), 0.3 mM EDTA, 20 mM sodium succinate, 53 μM DCIP (2,6-dichloroindophenol sodium), and 2 nM succinate dehydrogenase. Thermostatic waterbath at 23° C. and magnetic stirring at 600 rpm. The decrease in the light absorption of the substrate DCIP is monitored at a wavelength of 600 nm and experimental points in a linear range are collected. Control substrate consumption not more than 5% of the experimental points. The molar extinction coefficient of DCIP is 21 mM^−1 cm^−1. And calculating the reduction yield of the DCIP in the reaction time, fitting a linear slope, and deducting the baseline slope to obtain the initial reaction speed.
As to `C=C(c1ccc(Br)cc1)C(C)N(C(=O)c1c(C(F)F)nn(C)c1F)C1CC1` (stereo not drawn) [Compound 66], the inhibition at 10 µM is greater than 90%.
The same measure, in the same setting: to `C=C(c1cccc(Cl)c1)C(C)N(C(=O)c1c(C(F)F)nn(C)c1F)C1CC1` (stereo not drawn) [Compound 57] belongs greater than 90%.
Same read-out and setting: to `CCS(=O)(=O)c1ccc(C(CN(C(=O)c2c(C(F)F)nn(C)c2F)C2CC2)=C(Cl)Cl)cc1` [Compound 163] belongs greater than 90%; to `CC(C(=C(Cl)Cl)c1cccc(S(C)(=O)=O)c1)N(C(=O)c1c(C(F)F)nn(C)c1F)C1CC1` (stereo not drawn) [Compound 213], greater than 90%; to `Cc1cc(C)c(C(CN(C(=O)c2c(C(F)F)nn(C)c2F)C2CC2)=C(Cl)Cl)c(C)c1` [Compound 143], greater than 90%.
As for `CC(C(=C(Cl)Cl)c1ccccc1Cl)N(C(=O)c1c(C(F)F)nn(C)c1F)C1CC1` (stereo not drawn) [Compound 168], the inhibition at 10 µM was greater than 90%.
Consider `Cn1nc(C(F)F)c(C(=O)N(CC(=C(Cl)Cl)c2ccc(Cl)cc2)C2CC2)c1F` [Compound 112], for which the inhibition at 10 µM is greater than 90%.
On to `C=C(CN(C(=O)c1c(C(F)F)nn(C)c1F)C1CC1)c1cc(F)c(Cl)cc1Cl` [Compound 13], for which the inhibition at 10 µM was greater than 90%.
Consider `Cn1nc(C(F)F)c(C(=O)N(CC(=C(Cl)Cl)c2c(F)cccc2F)C2CC2)c1F` [Compound 128], for which the inhibition at 10 µM was greater than 90%.
Consider `C=C(c1cccc(OC)c1)C(C)N(C(=O)c1c(C(F)F)nn(C)c1F)C1CC1` (stereo not drawn) [Compound 69], for which the inhibition at 10 µM is greater than 90%.
As to `Cn1nc(C(F)F)c(C(=O)N(CC(=C(Cl)Cl)c2c(Br)cccc2Br)C2CC2)c1F` [Compound 136], the inhibition at 10 µM is greater than 90%.
Consider `C=C(CN(C(=O)c1c(C(F)F)nn(C)c1F)C1CC1)c1cc(Cl)ccc1Cl` [Compound 14], for which the inhibition at 10 µM is greater than 90%.
With `C=C(CN(C(=O)c1c(C(F)F)nn(C)c1F)C1CC1)c1ccc(C(C)C)cc1C` [Compound 41], the inhibition at 10 µM was greater than 90%.
Take `Cn1nc(C(F)F)c(C(=O)N(CC(=C(Cl)Cl)c2c(Cl)cccc2Cl)C2CC2)c1F` [Compound 120]: the inhibition at 10 µM was greater than 90%.
Turning to `CC(C(=C(Cl)Cl)c1cc(S(C)(=O)=O)ccc1Cl)N(C(=O)c1c(C(F)F)nn(C)c1F)C1CC1` (stereo not drawn) [Compound 215], the inhibition at 10 µM is greater than 90%.
As for `CC(C(=C(Cl)Cl)c1cccc(Cl)c1)N(C(=O)c1c(C(F)F)nn(C)c1F)C1CC1` (stereo not drawn) [Compound 169], the inhibition at 10 µM was greater than 90%.
`CC(C(=C(Cl)Cl)c1cc(Cl)ccc1Cl)N(C(=O)c1c(C(F)F)nn(C)c1F)C1CC1` (stereo not drawn) [Compound 171]: the inhibition at 10 µM is greater than 90%.
For the compound `CC(C(=C(Cl)Cl)c1ccc(S(C)(=O)=O)cc1Cl)N(C(=O)c1c(C(F)F)nn(C)c1F)C1CC1` (stereo not drawn) [Compound 212], the inhibition at 10 µM was greater than 90%.

A further test deals with Erysiphe graminis. The test is described as follows: Erysiphe graminis potting method. Type of test: in vivo. Particulars: Blumeria graminis; 100 mg/L; read-out: Erysiphe graminis control rating. The protocol: The fungicidal activity of the control agents and target compounds are determined. The test and investigation method refers to SOP-SC-1116 Erysiphe graminis potting method in disinfectant rolls written by KANGZHUO and GUBAOGEN in “Standard operation specification for testing biological activity of pesticides”.
Regarding `C=C(c1ccc(Br)cc1)C(C)N(C(=O)c1c(C(F)F)nn(C)c1F)C1CC1` (stereo not drawn) [Compound 66], the pest or weed control at 100 µg/mL was 80 to 100%.
As for `C=C(c1cccc(Cl)c1)C(C)N(C(=O)c1c(C(F)F)nn(C)c1F)C1CC1` (stereo not drawn) [Compound 57], the pest or weed control at 100 µg/mL lay within 80 to 100%.
In the case of `CCS(=O)(=O)c1ccc(C(CN(C(=O)c2c(C(F)F)nn(C)c2F)C2CC2)=C(Cl)Cl)cc1` [Compound 163], the pest or weed control at 100 µg/mL lay in the range of 80 to 100%.
In the case of `CC(C(=C(Cl)Cl)c1cccc(S(C)(=O)=O)c1)N(C(=O)c1c(C(F)F)nn(C)c1F)C1CC1` (stereo not drawn) [Compound 213], the pest or weed control at 100 µg/mL is 80 to 100%.
In the case of `Cc1cc(C)c(C(CN(C(=O)c2c(C(F)F)nn(C)c2F)C2CC2)=C(Cl)Cl)c(C)c1` [Compound 143], the pest or weed control at 100 µg/mL was 80 to 100%.
Regarding `CC(C(=C(Cl)Cl)c1ccccc1Cl)N(C(=O)c1c(C(F)F)nn(C)c1F)C1CC1` (stereo not drawn) [Compound 168], the pest or weed control at 100 µg/mL fell in the range of 80 to 100%.
Same read-out and setting: to `Cn1nc(C(F)F)c(C(=O)N(CC(=C(Cl)Cl)c2ccc(Cl)cc2)C2CC2)c1F` [Compound 112] belongs 80 to 100%; to `C=C(CN(C(=O)c1c(C(F)F)nn(C)c1F)C1CC1)c1cc(F)c(Cl)cc1Cl` [Compound 13], 80 to 100%; to `Cn1nc(C(F)F)c(C(=O)N(CC(=C(Cl)Cl)c2c(F)cccc2F)C2CC2)c1F` [Compound 128], 80 to 100%.
On the same count and under the same terms, to `C=C(c1cccc(OC)c1)C(C)N(C(=O)c1c(C(F)F)nn(C)c1F)C1CC1` (stereo not drawn) [Compound 69] belongs 80 to 100%; to `Cn1nc(C(F)F)c(C(=O)N(CC(=C(Cl)Cl)c2c(Br)cccc2Br)C2CC2)c1F` [Compound 136], 80 to 100%.
`C=C(CN(C(=O)c1c(C(F)F)nn(C)c1F)C1CC1)c1cc(Cl)ccc1Cl` [Compound 14]: the pest or weed control at 100 µg/mL lay in the range of 80 to 100%.
Regarding `C=C(CN(C(=O)c1c(C(F)F)nn(C)c1F)C1CC1)c1ccc(C(C)C)cc1C` [Compound 41], the pest or weed control at 100 µg/mL is 80 to 100%.
Regarding `Cn1nc(C(F)F)c(C(=O)N(CC(=C(Cl)Cl)c2c(Cl)cccc2Cl)C2CC2)c1F` [Compound 120], the pest or weed control at 100 µg/mL was 80 to 100%.
On to `CC(C(=C(Cl)Cl)c1cc(S(C)(=O)=O)ccc1Cl)N(C(=O)c1c(C(F)F)nn(C)c1F)C1CC1` (stereo not drawn) [Compound 215], for which the pest or weed control at 100 µg/mL lay within 80 to 100%.
Turning to `CC(C(=C(Cl)Cl)c1cccc(Cl)c1)N(C(=O)c1c(C(F)F)nn(C)c1F)C1CC1` (stereo not drawn) [Compound 169], the pest or weed control at 100 µg/mL fell in the range of 80 to 100%.
Still for that read-out and setting: to `CC(C(=C(Cl)Cl)c1cc(Cl)ccc1Cl)N(C(=O)c1c(C(F)F)nn(C)c1F)C1CC1` (stereo not drawn) [Compound 171] belongs 80 to 100%; to `CC(C(=C(Cl)Cl)c1ccc(S(C)(=O)=O)cc1Cl)N(C(=O)c1c(C(F)F)nn(C)c1F)C1CC1` (stereo not drawn) [Compound 212], 80 to 100%.

The test system of the next test is Sphaerotheca fuliginea. The experiment in a line: Sphaerotheca fuliginea potting method. Format: in vivo. Particulars: Podosphaera fuliginea; 100 mg/L; read-out: Sphaerotheca fuliginea control rating. How it is done:
The fungicidal activity of the control agents and target compounds are determined. The test and investigation method refers to SOP-SC-1101 sphaerotheca fuliginea potting method in disinfectant rolls written by KANGZHUO and GUBAOGEN in “Standard operation specification for testing biological activity of pesticides”.
As to `C=C(c1ccc(Br)cc1)C(C)N(C(=O)c1c(C(F)F)nn(C)c1F)C1CC1` (stereo not drawn) [Compound 66], the pest or weed control at 100 µg/mL was 80 to 100%.
Regarding `C=C(c1cccc(Cl)c1)C(C)N(C(=O)c1c(C(F)F)nn(C)c1F)C1CC1` (stereo not drawn) [Compound 57], the pest or weed control at 100 µg/mL was 80 to 100%.
As to `CCS(=O)(=O)c1ccc(C(CN(C(=O)c2c(C(F)F)nn(C)c2F)C2CC2)=C(Cl)Cl)cc1` [Compound 163], the pest or weed control at 100 µg/mL is 80 to 100%.
Consider `CC(C(=C(Cl)Cl)c1cccc(S(C)(=O)=O)c1)N(C(=O)c1c(C(F)F)nn(C)c1F)C1CC1` (stereo not drawn) [Compound 213], for which the pest or weed control at 100 µg/mL is 80 to 100%.
Still for that read-out and setting: to `Cc1cc(C)c(C(CN(C(=O)c2c(C(F)F)nn(C)c2F)C2CC2)=C(Cl)Cl)c(C)c1` [Compound 143] belongs 80 to 100%; to `CC(C(=C(Cl)Cl)c1ccccc1Cl)N(C(=O)c1c(C(F)F)nn(C)c1F)C1CC1` (stereo not drawn) [Compound 168], 80 to 100%; to `Cn1nc(C(F)F)c(C(=O)N(CC(=C(Cl)Cl)c2ccc(Cl)cc2)C2CC2)c1F` [Compound 112], 80 to 100%.
Consider `C=C(CN(C(=O)c1c(C(F)F)nn(C)c1F)C1CC1)c1cc(F)c(Cl)cc1Cl` [Compound 13], for which the pest or weed control at 100 µg/mL was in the range of 80 to 100%.
Consider `Cn1nc(C(F)F)c(C(=O)N(CC(=C(Cl)Cl)c2c(F)cccc2F)C2CC2)c1F` [Compound 128], for which the pest or weed control at 100 µg/mL was 80 to 100%.
Still for that read-out and setting: for `C=C(c1cccc(OC)c1)C(C)N(C(=O)c1c(C(F)F)nn(C)c1F)C1CC1` (stereo not drawn) [Compound 69] the value was 80 to 100%; for `Cn1nc(C(F)F)c(C(=O)N(CC(=C(Cl)Cl)c2c(Br)cccc2Br)C2CC2)c1F` [Compound 136], 80 to 100%; for `C=C(CN(C(=O)c1c(C(F)F)nn(C)c1F)C1CC1)c1cc(Cl)ccc1Cl` [Compound 14], 80 to 100%.
As for `C=C(CN(C(=O)c1c(C(F)F)nn(C)c1F)C1CC1)c1ccc(C(C)C)cc1C` [Compound 41], the pest or weed control at 100 µg/mL lay within 80 to 100%.
In the case of `Cn1nc(C(F)F)c(C(=O)N(CC(=C(Cl)Cl)c2c(Cl)cccc2Cl)C2CC2)c1F` [Compound 120], the pest or weed control at 100 µg/mL lay in the range of 80 to 100%.
In the case of `CC(C(=C(Cl)Cl)c1cc(S(C)(=O)=O)ccc1Cl)N(C(=O)c1c(C(F)F)nn(C)c1F)C1CC1` (stereo not drawn) [Compound 215], the pest or weed control at 100 µg/mL lay within 80 to 100%.
In the case of `CC(C(=C(Cl)Cl)c1cccc(Cl)c1)N(C(=O)c1c(C(F)F)nn(C)c1F)C1CC1` (stereo not drawn) [Compound 169], the pest or weed control at 100 µg/mL is 80 to 100%.
Take `CC(C(=C(Cl)Cl)c1cc(Cl)ccc1Cl)N(C(=O)c1c(C(F)F)nn(C)c1F)C1CC1` (stereo not drawn) [Compound 171]: the pest or weed control at 100 µg/mL is 80 to 100%.
`CC(C(=C(Cl)Cl)c1ccc(S(C)(=O)=O)cc1Cl)N(C(=O)c1c(C(F)F)nn(C)c1F)C1CC1` (stereo not drawn) [Compound 212]: the pest or weed control at 100 µg/mL lay within 80 to 100%.
